Measured values from the NIST ThermoML archive (doi:10.1021/je500381c).

Experiment: refractive index (Na D-line) (dimensionless); xn = mol fraction of the nth substance listed
Conditions: 100 kPa, Liquid, Standard Abbe refractometry

CCC12CC3CC(CC(C3)C1)C2 [1-ethyladamantane] + OCC1CCCCC1
refractive index
Conditions | x2 = 0 | x2 = 0.1 | x2 = 0.2002 | x2 = 0.2997 | x2 = 0.3999 | x2 = 0.4998 | x2 = 0.5989 | x2 = 0.7001 | x2 = 0.8023 | x2 = 0.8996
293.15 K | 1.4927 | 1.4903 | 1.4877 | 1.4853 | 1.4828 | 1.4801 | 1.477 | 1.474 | 1.4708 | 1.4673
298.15 K | 1.4906 | 1.4883 | 1.4861 | 1.4835 | 1.4807 | 1.478 | 1.4754 | 1.4721 | 1.4689 | 1.4655
303.15 K | 1.4884 | 1.4861 | 1.4836 | 1.4812 | 1.4783 | 1.4757 | 1.4733 | 1.47 | 1.4668 | 1.4634
313.15 K | 1.4839 | 1.4816 | 1.4791 | 1.4768 | 1.4741 | 1.471 | 1.4687 | 1.4657 | 1.4623 | 1.4593
323.15 K | 1.4802 | 1.4775 | 1.4751 | 1.4725 | 1.4699 | 1.4672 | 1.4645 | 1.4616 | 1.4584 | 1.4553
333.15 K | 1.4759 | 1.4725 | 1.4703 | 1.4678 | 1.4652 | 1.4627 | 1.4599 | 1.4571 | 1.4541 | 1.451

OCC1CCCCC1 [cyclohexylmethanol] + CC12CC3CC(C1)CC(C)(C3)C2
refractive index
Conditions | x1 = 0.1002 | x1 = 0.1995 | x1 = 0.2996 | x1 = 0.4004 | x1 = 0.4973 | x1 = 0.6008 | x1 = 0.7002 | x1 = 0.7999 | x1 = 0.9 | x1 = 1
293.15 K | 1.4759 | 1.4754 | 1.4742 | 1.4732 | 1.4719 | 1.4705 | 1.4692 | 1.4673 | 1.4655 | 1.4629
298.15 K | 1.4738 | 1.4734 | 1.4722 | 1.4709 | 1.4698 | 1.4688 | 1.467 | 1.4653 | 1.4638 | 1.4612
303.15 K | 1.4716 | 1.4712 | 1.47 | 1.4689 | 1.4679 | 1.4664 | 1.4651 | 1.4635 | 1.4617 | 1.4592
313.15 K | 1.4673 | 1.4669 | 1.4656 | 1.4645 | 1.4633 | 1.462 | 1.4607 | 1.4584 | 1.4571 | 1.455
323.15 K | 1.4626 | 1.4623 | 1.461 | 1.4602 | 1.459 | 1.4575 | 1.4564 | 1.4548 | 1.4535 | 1.4507
333.15 K | 1.4583 | 1.4578 | 1.4565 | 1.4554 | 1.4544 | 1.4529 | 1.4514 | 1.45 | 1.4488 | 1.4463

CCC12CC3CC(CC(C3)C1)C2 [1-ethyladamantane] + CCCCCCCO
refractive index
Conditions | x2 = 0 | x2 = 0.0999 | x2 = 0.1999 | x2 = 0.2988 | x2 = 0.3991 | x2 = 0.4998 | x2 = 0.5995 | x2 = 0.7 | x2 = 0.8002 | x2 = 0.9
293.15 K | 1.4927 | 1.4869 | 1.4809 | 1.4746 | 1.4682 | 1.461 | 1.4546 | 1.4473 | 1.4397 | 1.4316
298.15 K | 1.4906 | 1.4847 | 1.4785 | 1.4725 | 1.466 | 1.4594 | 1.4522 | 1.4451 | 1.4376 | 1.4298
303.15 K | 1.4884 | 1.4827 | 1.4768 | 1.4704 | 1.464 | 1.4573 | 1.4499 | 1.4433 | 1.4359 | 1.4278
313.15 K | 1.4839 | 1.4782 | 1.4722 | 1.466 | 1.4596 | 1.4528 | 1.4462 | 1.4389 | 1.4316 | 1.4236
323.15 K | 1.4802 | 1.474 | 1.468 | 1.4618 | 1.4554 | 1.4486 | 1.4419 | 1.4349 | 1.4273 | 1.4198
333.15 K | 1.4759 | 1.4697 | 1.4635 | 1.4577 | 1.451 | 1.4443 | 1.4373 | 1.4305 | 1.423 | 1.4156

CC12CC3CC(C1)CC(C)(C3)C2 [1,3-dimethyladamantane] + CCCCCCCO
refractive index
Conditions | x2 = 0 | x2 = 0.1001 | x2 = 0.1997 | x2 = 0.2998 | x2 = 0.3997 | x2 = 0.4997 | x2 = 0.6002 | x2 = 0.7 | x2 = 0.7996 | x2 = 0.8999
293.15 K | 1.4776 | 1.4735 | 1.4696 | 1.4642 | 1.4591 | 1.4541 | 1.4483 | 1.4427 | 1.4365 | 1.4299
298.15 K | 1.4757 | 1.4714 | 1.4678 | 1.4624 | 1.4572 | 1.4519 | 1.4468 | 1.4411 | 1.4351 | 1.4282
303.15 K | 1.4734 | 1.4695 | 1.4654 | 1.4603 | 1.4551 | 1.4495 | 1.4442 | 1.4389 | 1.4333 | 1.4265
313.15 K | 1.4691 | 1.4646 | 1.4608 | 1.4558 | 1.4508 | 1.4457 | 1.4402 | 1.4347 | 1.4288 | 1.4223
323.15 K | 1.4651 | 1.4606 | 1.4567 | 1.4514 | 1.4464 | 1.4411 | 1.4359 | 1.4301 | 1.4244 | 1.4178
333.15 K | 1.461 | 1.4564 | 1.4527 | 1.4473 | 1.4422 | 1.437 | 1.4316 | 1.4262 | 1.4206 | 1.4141

CC12CC3CC(C)(C1)CC(C)(C3)C2 [1,3,5-trimethyladamantane] + CCCCCCCO
refractive index
Conditions | x2 = 0 | x2 = 0.1001 | x2 = 0.2001 | x2 = 0.3002 | x2 = 0.4004 | x2 = 0.5001 | x2 = 0.6002 | x2 = 0.7001 | x2 = 0.7999 | x2 = 0.9002
293.15 K | 1.4736 | 1.4695 | 1.4657 | 1.4617 | 1.4573 | 1.4524 | 1.4476 | 1.4424 | 1.4366 | 1.4303
298.15 K | 1.4715 | 1.4677 | 1.4637 | 1.4597 | 1.4552 | 1.4504 | 1.4458 | 1.4405 | 1.4348 | 1.4286
303.15 K | 1.4695 | 1.4652 | 1.4614 | 1.4574 | 1.453 | 1.4484 | 1.4434 | 1.4382 | 1.4325 | 1.4262
313.15 K | 1.4649 | 1.4612 | 1.4571 | 1.453 | 1.4487 | 1.4438 | 1.4389 | 1.4341 | 1.4283 | 1.4224
323.15 K | 1.4612 | 1.4569 | 1.453 | 1.4489 | 1.4445 | 1.4398 | 1.435 | 1.4299 | 1.4244 | 1.4182
333.15 K | 1.4568 | 1.4526 | 1.4485 | 1.4444 | 1.4401 | 1.4354 | 1.4303 | 1.4255 | 1.4195 | 1.4138
